From patent publication US10167279B2 (NOVARTIS AG, priority 2014, dated 2019)

Molecular target: C-Raf FL (Homo sapiens (Human), UniProt P04049, Y340E/Y341E)
Assay: In vitro Raf activity determination (Alpha Screen, phospho-MEK), C-Raf FL (full length, Y340E/Y341E)
Type: biochemical
Details: ATP 1 μM; 60 min pre-incubation; 1 hour reaction; column head does not say FL or TR
In short: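 Sf9-expressed C-Raf incubated with biotinylated kinase-dead MEK1 (K97R) in 50 mM Tris pH 7.5, 15 mM MgCl2, 0.01% BSA, 1 mM DTT with compound, 60 min at room temperature. Phospho-MEK detected by anti-p-MEK AlphaScreen luminescence; IC50 by non-linear regression.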

| Compound | IC50 [pM] |
| --- | --- |
| Cc1ccc(NC(=O)c2ccnc(C(F)(F)F)c2)cc1-c1cc(OCCO)nc(C2(C)CCOCC2)c1 [Example 205, N-(3-(2-(2-hydroxyethoxy)-6-(4-methyltetrahydro-2H-pyran-4-yl)pyridin-4-yl)-4-methylphenyl)-2-(trifluoromethyl) isonicotinamide] | 400 |
| Cc1ncc(NC(=O)c2ccnc(C(C)(C)F)c2)cc1-c1cc(OCCO)nc(C2(CF)COC2)c1 [Example 133, N-(2′-(3-(fluoromethyl)oxetan-3-yl)-6′-(2-hydroxyethoxy)-2-methyl-[3,4′-bipyridin]-5-yl)-2-(2-fluoropropan-2-yl)isonicotinamide] | 1280 |
| Cc1ccc(NC(=O)c2ccnc(C(C)(F)F)c2)cc1-c1cc(C2CCOCC2)nc(N(CCO)CCO)c1 [Example 177, N-(3-(2-(bis(2-hydroxyethyl)amino)-6-(tetrahydro-2H-pyran-4-yl)pyridin-4-yl)-4-methylphenyl)-2-(1,1-difluoroethyl) isonicotinamide] | 621 |
| Cc1ccc(NC(=O)c2cc(C(F)(F)F)ccn2)cc1-c1cc(OCCO)nc(C2CCOCC2O)c1 (single isomer, unassigned) [Example 248] | 700 |
| COC1(c2cc(-c3cc(NC(=O)c4cc(C(F)(F)F)ccn4)ccc3C)cc(NCCO)n2)COC1 [Example 154, N-(3-(2-((2-hydroxyethyl)amino)-6-(3-methoxyoxetan-3-yl)pyridin-4-yl)-4-methylphenyl)-4-(trifluoromethyl)picolin-amide] | 40 |
| Cc1ncc(NC(=O)c2cccc(C(F)(F)F)c2)cc1-c1cc(C2(C)COC2)c(=O)[nH]n1 [Example 15, N-(6-methyl-5-(5-(3-methyloxetan-3-yl)-6-oxo-1,6-dihydropyridazin-3-yl)pyridin-3-yl)-3-(trifluoromethyl)benzamide] | 1000 |
| COc1ncc(-c2cc(NC(=O)c3ccnc(C(C)(C)C#N)c3)cnc2C)cc1C1(F)COC1 [Example 80, 2-(2-cyanopropan-2-yl)-N-(5′-(3-fluorooxetan-3-yl)-6′-methoxy-2-methyl-[3,3′-bipyridin]-5-yl)isonicotinamide] | 2000 |
| Cc1ccc(NC(=O)c2cc(C(F)(F)F)ccn2)cc1-c1cc(OCCO)nc(C2CCOCC2O)c1 (centres unmarked) [Example 247] | 400 |
| CCOc1nnc(-c2cc(NC(=O)c3cc(C(F)(F)F)c[nH]c3=O)ccc2C)cc1C1CCOCC1 [Example 226, N-(3-(6-ethoxy-5-(tetrahydro-2H-pyran-4-yl)pyridazin-3-yl)-4-methylphenyl)-2-oxo-5-(trifluoromethyl)-1,2-dihydropyridine-3-carboxamide] | 4000 |
| Cc1ccc(NC(=O)c2ccnc(C3(C(F)(F)F)CC3)c2)cc1-c1cc(OCCO)nc(C2CCOCC2)c1 [Example 259, N-(3-(2-(2-hydroxyethoxy)-6-(tetrahydro-2H-pyran-4-yl)pyridin-4-yl)-4-methylphenyl)-2-(1-(trifluoromethyl)cyclopropyl) isonicotinamide] | 300 |
| Cc1ccc(NC(=O)c2cccc(C(F)(F)F)c2)cc1-c1cc(NCCO)nc(C2(O)COC2)c1 [Example 300, N-(3-(2-((2-hydroxyethyl)amino)-6-(3-hydroxyoxetan-3-yl)pyridin-4-yl)-4-methylphenyl)-3-(trifluoromethyl) benzamide] | 100 |
| Cc1ccc(NC(=O)c2ccnc(Cl)c2)cc1-c1cc(OC[C@H](O)CO)nc(C2CCOCC2)c1 [Example 280, (R)-2-chloro-N-(3-(2-(2,3-dihydroxypropoxy)-6-(tetrahydro-2H-pyran-4-yl)pyridin-4-yl)-4-methylphenyl) isonicotinamide] | 70 |
| COC1(c2cc(-c3cc(NC(=O)c4cccc(C(F)(F)F)c4)cnc3C)cc(NCCO)n2)COC1 [Example 152, N-(2′-((2-hydroxyethyl)amino)-6′-(3-methoxyoxetan-3-yl)-2-methyl-[3,4′-bipyridin]-5-yl)-3-(trifluoromethyl)benzamide] | 80 |
| Cc1ccc(NC(=O)c2cc(C(F)(F)F)ncn2)cc1-c1cc(OCCO)nc(C2CCOCC2)c1 [Example 260, N-(3-(2-(2-hydroxyethoxy)-6-(tetrahydro-2H-pyran-4-yl)pyridin-4-yl)-4-methylphenyl)-6-(trifluoromethyl) pyrimidine-4-carboxamide] | 80 |
| Cc1ccc(NC(=O)c2ccnc(C(C)(F)F)c2)cc1-c1cc(OCCO)nc(C2(F)COC2)c1 [Example 54, 2-(1,1-difluoroethyl)-N-(3-(2-(3-fluorooxetan-3-yl)-6-(2-hydroxyethoxy)pyridin-4-yl)-4-methylphenyl)isonicotin-amide] | 211 |
| N-(3-(2- (hydroxymethyl)-2- methyl-3-oxo-8- (tetrahydro-2H- pyran-4-yl)-3,4-dihydro- 2H- benzo[b][1,4]oxazin-6- yl)-4-methylphenyl)-5- (trifluoromethyl) pyridazine-3-carboxamide [Example 204] | 20 |
| Cc1ccc(NC(=O)c2cnnc(C(F)(F)F)c2)cc1-c1cc(OCCO)nc(C2(CO)CCOCC2)c1 [Example 217] | 300 |
| CCC(F)(F)c1cc(C(=O)Nc2ccc(C)c(-c3cc(C4CCOCC4)nc(N4CCC(O)CC4)c3)c2)ccn1 [Example 188, 2-(1,1-difluoropropyl)-N-(3-(2-(4-hydroxypiperidin-1-yl)-6-(tetrahydro-2H-pyran-4-yl)pyridin-4-yl)-4-methylphenyl)-2-isonicotinamide] | 621 |
| CCOc1ncc(-c2cc(NC(=O)c3ccnc(C(C)(C)F)c3)cnc2C)cc1C1(CF)CCOC1 (centres unmarked) [Example 165, N-(6′-ethoxy-5′-(3-(fluoromethyl)tetrahydrofuran-3-yl)-2-methyl-[3,3′-bipyridin]-5-yl)-2-(2-fluoropropan-2-yl)isonicotinamide] | 1000 |
| Cc1ccc(NC(=O)c2cc(C(F)(F)F)ccn2)cc1-c1cc2c(c(C3CCOCC3)c1)NC(=O)C(C)(CO)O2 (single isomer, unassigned) [Example 193, N-(3-(2-(hydroxymethyl)-2-methyl-3-oxo-5-(tetrahydro-2H-pyran-4-yl)-3,4-dihydro-2H-benzo [b][1,4]oxazin-7-yl)-4-methylphenyl)-4-(trifluoromethyl) picolinamide carboxamide] | 20 |
| Cc1ccc(NC(=O)c2cc(C(F)(F)F)cnn2)cc1-c1cc2c(c(C3CCOCC3)c1)NC(=O)C(C)(CO)O2 (centres unmarked) [Example 195, N-(3-(2-(hydroxymethyl)-2-methyl-3-oxo-5-(tetrahydro-2H-pyran-4-yl)-3,4-dihydro-2H-benzo [b][1,4]oxazin-7-yl)-4-methylphenyl)-5-(trifluoromethyl) pyridazine-3-carboxamide] | 30 |
| COC1(c2cc(-c3cc(NC(=O)c4ccnc(C(F)F)c4)ccc3C)cc(OCCO)n2)COC1 [Example 158, 2-(difluoromethyl)-N-(3-(2-(2-hydroxyethoxy)-6-(3-methoxyoxetan-3-yl)pyridin-4-yl)-4-methylphenyl)isonicotin-amide] | 400 |
| Cc1ccc(NC(=O)c2ccnc(C(C)(C)F)c2)cc1-c1cnc(OCCO)c(C2(F)COC2)c1 [Example 41, N-(3-(5-(3-fluorooxetan-3-yl)-6-(2-hydroxyethoxy)pyridin-3-yl)-4-methylphenyl)-2-(2-fluoropropan-2-yl)isonicotinamide] | 245 |
